Results: PubChem BioAssay AID1845194 (Molecular Pharmacology Branch, DTP, NCI, 2023)

Tested on: 287954-098-R-J1 tumor spheroid viability
Test: Anticancer human tumor 287954-098-R-J1 patient-derived Ewing sarcoma cell line growth inhibition
Conditions: spheroids with HUVEC and MSC; for IC50: curve of first compound; for viability, T/C: stronger effect = lower value
Method in brief: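 Complex spheroids of malignant cells with endothelial cells and mesenchymal stem cells; agents alone or combined, from near clinical Cmax (or 10 microM if unknown) down in half-log steps, 0.25% DMSO final.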

[1] = second compound 1 µM, first compound 0.0949 µM
[2] = second compound 1 µM, first compound 0.3 µM
[3] = second compound 1 µM, first compound 0.949 µM
[4] = second compound 1 µM, first compound 3 µM
[5] = second compound 3.16 µM, first compound 0.0949 µM
[6] = second compound 3.16 µM, first compound 0.3 µM
[7] = second compound 3.16 µM, first compound 0.949 µM
[8] = second compound 3.16 µM, first compound 3 µM
[9] = second compound 10 µM, first compound 0.0949 µM
[10] = second compound 10 µM, first compound 0.3 µM
[11] = second compound 10 µM, first compound 0.949 µM
[12] = second compound 10 µM, first compound 3 µM
[13] = second compound 31.6 µM, first compound 0.0949 µM
[14] = second compound 31.6 µM, first compound 0.3 µM
[15] = second compound 31.6 µM, first compound 0.949 µM
[16] = second compound 31.6 µM, first compound 3 µM
[17] = second compound 100 µM, first compound 0.0949 µM
[18] = second compound 100 µM, first compound 0.3 µM
[19] = second compound 100 µM, first compound 0.949 µM
[20] = second compound 100 µM, first compound 3 µM
[21] = second compound 30 pM, first compound 0.00949 µM
[22] = second compound 30 pM, first compound 0.03 µM
[23] = second compound 30 pM, first compound 0.0949 µM
[24] = second compound 30 pM, first compound 0.3 µM
[25] = second compound 30 pM, first compound 0.949 µM
[26] = second compound 30 pM, first compound 3 µM
[27] = second compound 94.9 pM, first compound 0.00949 µM
[28] = second compound 94.9 pM, first compound 0.03 µM
[29] = second compound 94.9 pM, first compound 0.0949 µM
[30] = second compound 94.9 pM, first compound 0.3 µM
[31] = second compound 94.9 pM, first compound 0.949 µM
[32] = second compound 94.9 pM, first compound 3 µM
[33] = second compound 0.0003 µM, first compound 0.00949 µM
[34] = second compound 0.0003 µM, first compound 0.03 µM
[35] = second compound 0.0003 µM, first compound 0.0949 µM
[36] = second compound 0.0003 µM, first compound 0.3 µM
[37] = second compound 0.0003 µM, first compound 0.949 µM
[38] = second compound 0.0003 µM, first compound 3 µM
[39] = second compound 0.000949 µM, first compound 0.00949 µM
[40] = second compound 0.000949 µM, first compound 0.03 µM
[41] = second compound 0.000949 µM, first compound 0.0949 µM
[42] = second compound 0.000949 µM, first compound 0.3 µM
[43] = second compound 0.000949 µM, first compound 0.949 µM
[44] = second compound 0.000949 µM, first compound 3 µM
[45] = second compound 0.003 µM, first compound 0.00949 µM
[46] = second compound 0.003 µM, first compound 0.03 µM
[47] = second compound 0.003 µM, first compound 0.0949 µM
[48] = second compound 0.003 µM, first compound 0.3 µM
[49] = second compound 0.003 µM, first compound 0.949 µM
[50] = second compound 0.003 µM, first compound 3 µM
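Note: spheroids exposed to compound for 7 days before viability readout.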
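Throughout, for viability, T/C: luminescent signal taken as surrogate of viable cell content; 100% = DMSO vehicle control viability and lower means growth inhibition.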

SMILES: Cc1sc2c(c1C)C(c1ccc(Cl)cc1)=NC(CC(=O)Nc1ccc(O)cc1)c1nnc(C)n1-2 (stereo not given) + Cn1nnc2c(C(N)=O)ncn2c1=O
- IC50 (second compound 1 µM): 954 nM
- IC50 (second compound 3.16 µM): 624 nM
- IC50 (second compound 10 µM): 1110 nM
- IC50 (second compound 31.6 µM): 624 nM
- IC50 (second compound 100 µM): 181 nM
- viability, T/C (second compound 1 µM, first compound 0.00949 µM): 112%
- viability, T/C (second compound 1 µM, first compound 0.03 µM): 117%
- viability, T/C [1]: 111%
- viability, T/C [2]: 101%
- viability, T/C [3]: 50.2%
- viability, T/C [4]: 4.34%
- viability, T/C (second compound 3.16 µM, first compound 0.00949 µM): 110%
- viability, T/C (second compound 3.16 µM, first compound 0.03 µM): 113%
- viability, T/C [5]: 123%
- viability, T/C [6]: 91.9%
- viability, T/C [7]: 25.9%
- viability, T/C [8]: 2.69%
- viability, T/C (second compound 10 µM, first compound 0.00949 µM): 113%
- viability, T/C (second compound 10 µM, first compound 0.03 µM): 122%
- viability, T/C [9]: 122%
- viability, T/C [10]: 100%
- viability, T/C [11]: 58.3%
- viability, T/C [12]: 2.44%
- viability, T/C (second compound 31.6 µM, first compound 0.00949 µM): 114%
- viability, T/C (second compound 31.6 µM, first compound 0.03 µM): 130%
- viability, T/C [13]: 121%
- viability, T/C [14]: 113%
- viability, T/C [15]: 13.7%
- viability, T/C [16]: 1.92%
- viability, T/C (second compound 100 µM, first compound 0.00949 µM): 105%
- viability, T/C (second compound 100 µM, first compound 0.03 µM): 115%
- viability, T/C [17]: 98.2%
- viability, T/C [18]: 12.2%
- viability, T/C [19]: 2.46%
- viability, T/C [20]: 2.14%

SMILES: O=C(c1cc(Cc2n[nH]c(=O)c3ccccc23)ccc1F)N1CCN(C(=O)C2CC2)CC1 + Cn1nnc2c(C(N)=O)ncn2c1=O
- IC50 (second compound 1 µM): 20600 nM
- IC50 (second compound 3.16 µM): 20900 nM
- IC50 (second compound 10 µM): 10400 nM
- IC50 (second compound 31.6 µM): 3410 nM
- IC50 (second compound 100 µM): 621 nM
- viability, T/C [1]: 97.5%
- viability, T/C [2]: 97.2%
- viability, T/C [3]: 106%
- viability, T/C [4]: 95.1%
- viability, T/C (second compound 1 µM, first compound 9.49 µM): 86.2%
- viability, T/C (second compound 1 µM, first compound 30 µM): 32.5%
- viability, T/C [5]: 104%
- viability, T/C [6]: 101%
- viability, T/C [7]: 98.2%
- viability, T/C [8]: 105%
- viability, T/C (second compound 3.16 µM, first compound 9.49 µM): 85.1%
- viability, T/C (second compound 3.16 µM, first compound 30 µM): 34%
- viability, T/C [9]: 107%
- viability, T/C [10]: 107%
- viability, T/C [11]: 93.6%
- viability, T/C [12]: 99%
- viability, T/C (second compound 10 µM, first compound 9.49 µM): 53.7%
- viability, T/C (second compound 10 µM, first compound 30 µM): 4.76%
- viability, T/C [13]: 107%
- viability, T/C [14]: 103%
- viability, T/C [15]: 106%
- viability, T/C [16]: 56%
- viability, T/C (second compound 31.6 µM, first compound 9.49 µM): 2.11%
- viability, T/C (second compound 31.6 µM, first compound 30 µM): 1.97%
- viability, T/C [17]: 104%
- viability, T/C [18]: 88.5%
- viability, T/C [19]: 27.7%
- viability, T/C [20]: 2.13%
- viability, T/C (second compound 100 µM, first compound 9.49 µM): 1.91%
- viability, T/C (second compound 100 µM, first compound 30 µM): 1.8%

SMILES: Cn1ncnc1[C@H]1c2n[nH]c(=O)c3cc(F)cc(c23)N[C@@H]1c1ccc(F)cc1 + COc1cc2c(cc1O)CCNC21CSC2c3c(OC(C)=O)c(C)c4c(c3C(COC1=O)N1C(O)C3Cc5cc(C)c(OC)c(O)c5C(C21)N3C)OCO4
- IC50 (second compound 30 pM): 575 nM
- IC50 (second compound 94.9 pM): 477 nM
- IC50 (second compound 0.0003 µM): 39 nM
- IC50 (second compound 0.000949 µM): < 9.49 nM
- IC50 (second compound 0.003 µM): < 9.49 nM
- viability, T/C [21]: 99%
- viability, T/C [22]: 111%
- viability, T/C [23]: 102%
- viability, T/C [24]: 97.6%
- viability, T/C [25]: 13.3%
- viability, T/C [26]: 1.27%
- viability, T/C [27]: 107%
- viability, T/C [28]: 104%
- viability, T/C [29]: 106%
- viability, T/C [30]: 82.7%
- viability, T/C [31]: 1.42%
- viability, T/C [32]: 1.02%
- viability, T/C [33]: 81.8%
- viability, T/C [34]: 63%
- viability, T/C [35]: 6%
- viability, T/C [36]: 1.31%
- viability, T/C [37]: 0.92%
- viability, T/C [38]: 0.91%
- viability, T/C [39]: 0.31%
- viability, T/C [40]: 0.21%
- viability, T/C [41]: 0.23%
- viability, T/C [42]: 0.13%
- viability, T/C [43]: 0.04%
- viability, T/C [44]: 0.12%
- viability, T/C [45]: 0.16%
- viability, T/C [46]: 0.17%
- viability, T/C [47]: 0.13%
- viability, T/C [48]: 0.12%
- viability, T/C [49]: 0.12%
- viability, T/C [50]: 0.2%

SMILES: Cc1sc2c(c1C)C(c1ccc(Cl)cc1)=NC(CC(=O)Nc1ccc(O)cc1)c1nnc(C)n1-2 (stereo not given) + COc1cc2c(cc1O)CCNC21CSC2c3c(OC(C)=O)c(C)c4c(c3C(COC1=O)N1C(O)C3Cc5cc(C)c(OC)c(O)c5C(C21)N3C)OCO4
- IC50 (second compound 30 pM): 529 nM
- IC50 (second compound 94.9 pM): 428 nM
- IC50 (second compound 0.0003 µM): 77.3 nM
- IC50 (second compound 0.000949 µM): < 9.49 nM
- IC50 (second compound 0.003 µM): < 9.49 nM
- viability, T/C [21]: 110%
- viability, T/C [22]: 120%
- viability, T/C [23]: 111%
- viability, T/C [24]: 97.2%
- viability, T/C [25]: 1.47%
- viability, T/C [26]: 1.05%
- viability, T/C [27]: 109%
- viability, T/C [28]: 117%
- viability, T/C [29]: 112%
- viability, T/C [30]: 65.4%
- viability, T/C [31]: 14.5%
- viability, T/C [32]: 1.03%
- viability, T/C [33]: 105%
- viability, T/C [34]: 93.7%
- viability, T/C [35]: 39%
- viability, T/C [36]: 12.4%
- viability, T/C [37]: 0.78%
- viability, T/C [38]: 0.57%
- viability, T/C [39]: 0.33%
- viability, T/C [40]: 0.34%
- viability, T/C [41]: 0.25%
- viability, T/C [42]: 0.07%
- viability, T/C [43]: 0.03%
- viability, T/C [44]: 0.11%
- viability, T/C [45]: 0.17%
- viability, T/C [46]: 0.16%
- viability, T/C [47]: 0.1%
- viability, T/C [48]: 0.11%
- viability, T/C [49]: 0.11%
- viability, T/C [50]: 0.19%
